# Laboratory results: ChEMBL document CHEMBL1152560, “Substituted 2-arylbenzothiazoles as kinase inhibitors: hit-to-lead optimization” (Bioorg Med Chem, 2009)
# What was measured:
# [1] = target: Misshapen-like kinase 1 (Homo sapiens) (UniProt Q8N4C8); assay: Residual activity of MINK1 at 0.1 uM by microplate scintillation counting
# [2] = target: Tyrosine-protein kinase Lyn (Homo sapiens) (UniProt P07948); assay: Residual activity of LYN at 1 uM by microplate scintillation counting
# [3] = target: Serine/threonine-protein kinase PLK1 (Homo sapiens) (UniProt P53350); assay: Residual activity of PLK1 at 1 uM by microplate scintillation counting
# Chain of Serine/threonine-protein kinase PLK1 (Homo sapiens) (P53350 whole entry): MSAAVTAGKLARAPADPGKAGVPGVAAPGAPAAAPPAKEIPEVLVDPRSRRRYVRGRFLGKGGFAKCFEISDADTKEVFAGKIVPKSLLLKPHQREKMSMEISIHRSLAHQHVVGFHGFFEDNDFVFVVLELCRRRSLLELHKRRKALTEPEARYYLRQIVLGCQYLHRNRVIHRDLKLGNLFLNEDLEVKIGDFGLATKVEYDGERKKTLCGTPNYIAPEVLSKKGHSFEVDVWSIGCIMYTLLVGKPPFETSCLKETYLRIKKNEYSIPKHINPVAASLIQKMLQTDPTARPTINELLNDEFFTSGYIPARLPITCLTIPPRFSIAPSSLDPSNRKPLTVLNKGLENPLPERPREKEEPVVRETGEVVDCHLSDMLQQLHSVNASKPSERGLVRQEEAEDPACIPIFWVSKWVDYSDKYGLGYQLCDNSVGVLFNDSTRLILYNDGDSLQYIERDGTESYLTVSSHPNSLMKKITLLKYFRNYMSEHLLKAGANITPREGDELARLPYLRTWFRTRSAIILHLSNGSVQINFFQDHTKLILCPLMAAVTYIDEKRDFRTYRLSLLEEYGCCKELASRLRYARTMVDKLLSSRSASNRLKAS
# [4] = target: Receptor-interacting serine/threonine-protein kinase 2 (Homo sapiens) (UniProt O43353); assay: Residual activity of RIPK2 at 1 uM by microplate scintillation counting
# Chain of Receptor-interacting serine/threonine-protein kinase 2 (Homo sapiens) (O43353 whole entry): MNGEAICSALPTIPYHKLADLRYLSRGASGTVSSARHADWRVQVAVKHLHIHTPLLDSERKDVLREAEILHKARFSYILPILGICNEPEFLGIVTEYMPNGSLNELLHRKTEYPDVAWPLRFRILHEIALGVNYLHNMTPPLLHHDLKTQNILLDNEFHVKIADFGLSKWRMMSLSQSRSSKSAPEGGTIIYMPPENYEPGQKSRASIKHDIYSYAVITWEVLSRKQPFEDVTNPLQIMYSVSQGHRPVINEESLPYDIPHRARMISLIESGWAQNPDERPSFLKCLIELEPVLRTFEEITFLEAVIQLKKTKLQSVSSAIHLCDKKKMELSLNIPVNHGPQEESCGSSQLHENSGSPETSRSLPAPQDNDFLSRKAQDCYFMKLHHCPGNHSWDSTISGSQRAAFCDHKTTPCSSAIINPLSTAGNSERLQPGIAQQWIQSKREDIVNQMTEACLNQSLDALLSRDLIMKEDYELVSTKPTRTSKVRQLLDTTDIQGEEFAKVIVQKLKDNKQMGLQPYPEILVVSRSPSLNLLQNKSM
# [5] = target: Macrophage colony-stimulating factor 1 receptor (Homo sapiens) (UniProt P07333); assay: Residual activity of CSF1R at 10 uM by microplate scintillation counting
# Chain of Macrophage colony-stimulating factor 1 receptor (Homo sapiens) (P07333 whole entry): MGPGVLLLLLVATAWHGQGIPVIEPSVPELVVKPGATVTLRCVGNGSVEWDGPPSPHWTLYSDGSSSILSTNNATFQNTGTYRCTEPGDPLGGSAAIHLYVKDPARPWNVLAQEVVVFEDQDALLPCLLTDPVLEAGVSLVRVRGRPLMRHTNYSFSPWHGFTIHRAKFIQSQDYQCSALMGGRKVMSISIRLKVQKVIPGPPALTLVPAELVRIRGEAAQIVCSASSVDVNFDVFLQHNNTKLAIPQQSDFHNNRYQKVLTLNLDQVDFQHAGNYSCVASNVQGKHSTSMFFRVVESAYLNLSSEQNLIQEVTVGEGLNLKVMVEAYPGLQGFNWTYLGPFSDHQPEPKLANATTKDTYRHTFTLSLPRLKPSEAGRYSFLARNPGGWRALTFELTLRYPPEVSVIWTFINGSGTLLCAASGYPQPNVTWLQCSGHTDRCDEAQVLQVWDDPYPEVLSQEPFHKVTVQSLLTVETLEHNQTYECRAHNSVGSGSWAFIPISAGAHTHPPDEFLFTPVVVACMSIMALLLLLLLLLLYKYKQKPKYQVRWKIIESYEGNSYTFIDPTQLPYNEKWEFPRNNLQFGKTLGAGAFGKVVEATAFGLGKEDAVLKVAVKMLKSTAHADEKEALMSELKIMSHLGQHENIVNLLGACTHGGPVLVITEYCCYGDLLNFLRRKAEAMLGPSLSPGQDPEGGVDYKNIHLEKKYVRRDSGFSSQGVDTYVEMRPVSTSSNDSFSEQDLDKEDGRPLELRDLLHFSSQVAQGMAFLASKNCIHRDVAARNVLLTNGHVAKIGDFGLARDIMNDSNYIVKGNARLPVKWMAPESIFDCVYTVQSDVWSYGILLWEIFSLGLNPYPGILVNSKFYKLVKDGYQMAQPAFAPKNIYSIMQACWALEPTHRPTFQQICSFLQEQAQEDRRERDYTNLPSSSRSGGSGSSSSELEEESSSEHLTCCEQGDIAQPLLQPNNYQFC
# [6] = target: T1, Serine/threonine-protein kinase DCLK2 (Homo sapiens) (UniProt Q8N568); assay: Residual activity of DCAMKL2 at 10 uM by microplate scintillation counting
# T1 sequence (whole entry): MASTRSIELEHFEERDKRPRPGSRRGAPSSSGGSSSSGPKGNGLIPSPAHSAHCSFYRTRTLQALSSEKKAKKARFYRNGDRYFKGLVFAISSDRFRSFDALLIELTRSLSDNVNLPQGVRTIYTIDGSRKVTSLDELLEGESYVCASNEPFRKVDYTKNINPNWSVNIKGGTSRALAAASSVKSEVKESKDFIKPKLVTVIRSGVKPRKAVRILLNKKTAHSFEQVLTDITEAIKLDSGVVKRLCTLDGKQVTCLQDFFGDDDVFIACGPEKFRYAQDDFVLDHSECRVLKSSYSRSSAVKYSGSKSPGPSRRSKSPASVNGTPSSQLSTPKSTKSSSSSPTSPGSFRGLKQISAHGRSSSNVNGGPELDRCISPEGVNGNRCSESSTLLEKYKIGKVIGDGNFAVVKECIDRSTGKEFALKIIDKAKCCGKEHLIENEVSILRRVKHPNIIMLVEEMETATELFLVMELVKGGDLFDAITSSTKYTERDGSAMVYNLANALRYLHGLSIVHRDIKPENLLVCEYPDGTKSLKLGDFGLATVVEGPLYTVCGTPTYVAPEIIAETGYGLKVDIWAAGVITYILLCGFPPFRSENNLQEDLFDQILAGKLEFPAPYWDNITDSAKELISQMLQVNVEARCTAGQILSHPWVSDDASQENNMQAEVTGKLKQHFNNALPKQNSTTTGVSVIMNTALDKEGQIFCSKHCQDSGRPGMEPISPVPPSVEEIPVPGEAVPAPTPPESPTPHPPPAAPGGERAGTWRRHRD
# [7] = test system: T2, Dual specificity mitogen-activated protein kinase kinase 6 (Homo sapiens), P52564 [S207D,T211D]; assay: Residual activity of MKK6 S207D/T211D mutant at 10 uM by microplate scintillation counting
# T2 sequence (whole entry): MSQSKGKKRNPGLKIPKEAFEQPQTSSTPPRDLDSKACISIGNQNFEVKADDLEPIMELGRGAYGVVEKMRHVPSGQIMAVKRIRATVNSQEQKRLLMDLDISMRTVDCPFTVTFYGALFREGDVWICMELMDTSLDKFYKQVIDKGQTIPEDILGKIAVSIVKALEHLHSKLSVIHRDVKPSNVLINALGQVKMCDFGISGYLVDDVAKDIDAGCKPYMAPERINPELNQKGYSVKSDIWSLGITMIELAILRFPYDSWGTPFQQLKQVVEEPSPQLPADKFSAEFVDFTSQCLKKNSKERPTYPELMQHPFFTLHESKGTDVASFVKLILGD
# [8] = target: T3, cGMP-dependent protein kinase 1 (Homo sapiens) (UniProt Q13976); assay: Residual activity of PRKG1 at 10 uM by microplate scintillation counting
# T3 sequence (whole entry): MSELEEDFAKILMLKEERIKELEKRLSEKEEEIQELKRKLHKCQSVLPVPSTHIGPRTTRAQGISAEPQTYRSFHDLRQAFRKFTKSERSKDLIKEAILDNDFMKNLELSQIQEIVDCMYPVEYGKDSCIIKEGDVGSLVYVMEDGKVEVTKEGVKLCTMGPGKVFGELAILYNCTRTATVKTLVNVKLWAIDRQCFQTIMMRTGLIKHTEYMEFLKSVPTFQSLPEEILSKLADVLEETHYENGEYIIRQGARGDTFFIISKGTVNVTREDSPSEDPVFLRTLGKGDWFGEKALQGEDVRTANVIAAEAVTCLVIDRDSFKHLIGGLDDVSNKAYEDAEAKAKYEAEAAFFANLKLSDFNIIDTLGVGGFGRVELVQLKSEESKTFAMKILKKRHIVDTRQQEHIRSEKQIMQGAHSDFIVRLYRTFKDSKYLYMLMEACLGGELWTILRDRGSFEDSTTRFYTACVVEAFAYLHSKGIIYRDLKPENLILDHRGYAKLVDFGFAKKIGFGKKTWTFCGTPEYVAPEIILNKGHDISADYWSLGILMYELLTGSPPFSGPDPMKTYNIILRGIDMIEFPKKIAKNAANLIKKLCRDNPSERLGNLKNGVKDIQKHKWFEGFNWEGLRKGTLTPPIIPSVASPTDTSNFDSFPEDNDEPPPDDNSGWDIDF
# [9] = target: T4, Tyrosine-protein kinase ZAP-70 (Homo sapiens) (UniProt P43403); assay: Residual activity of ZAP70 at 10 uM by microplate scintillation counting
# T4 sequence (whole entry): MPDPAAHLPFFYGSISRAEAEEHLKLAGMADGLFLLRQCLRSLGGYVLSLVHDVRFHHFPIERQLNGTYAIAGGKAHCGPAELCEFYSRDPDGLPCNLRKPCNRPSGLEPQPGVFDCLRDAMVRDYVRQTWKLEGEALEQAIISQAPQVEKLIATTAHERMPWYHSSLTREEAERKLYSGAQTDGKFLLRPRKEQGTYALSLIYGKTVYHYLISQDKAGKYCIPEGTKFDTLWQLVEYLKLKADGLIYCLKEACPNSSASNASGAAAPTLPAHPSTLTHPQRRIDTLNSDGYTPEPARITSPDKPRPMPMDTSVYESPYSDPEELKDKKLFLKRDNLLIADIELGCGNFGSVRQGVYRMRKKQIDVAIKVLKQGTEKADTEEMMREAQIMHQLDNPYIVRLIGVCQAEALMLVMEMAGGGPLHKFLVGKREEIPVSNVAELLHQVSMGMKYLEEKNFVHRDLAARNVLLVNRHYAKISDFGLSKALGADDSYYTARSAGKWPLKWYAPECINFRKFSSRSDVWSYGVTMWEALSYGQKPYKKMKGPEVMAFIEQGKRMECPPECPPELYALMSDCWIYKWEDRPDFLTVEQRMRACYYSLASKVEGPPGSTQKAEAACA
# Chain of Misshapen-like kinase 1 (Homo sapiens) (Q8N4C8 whole entry, looked up): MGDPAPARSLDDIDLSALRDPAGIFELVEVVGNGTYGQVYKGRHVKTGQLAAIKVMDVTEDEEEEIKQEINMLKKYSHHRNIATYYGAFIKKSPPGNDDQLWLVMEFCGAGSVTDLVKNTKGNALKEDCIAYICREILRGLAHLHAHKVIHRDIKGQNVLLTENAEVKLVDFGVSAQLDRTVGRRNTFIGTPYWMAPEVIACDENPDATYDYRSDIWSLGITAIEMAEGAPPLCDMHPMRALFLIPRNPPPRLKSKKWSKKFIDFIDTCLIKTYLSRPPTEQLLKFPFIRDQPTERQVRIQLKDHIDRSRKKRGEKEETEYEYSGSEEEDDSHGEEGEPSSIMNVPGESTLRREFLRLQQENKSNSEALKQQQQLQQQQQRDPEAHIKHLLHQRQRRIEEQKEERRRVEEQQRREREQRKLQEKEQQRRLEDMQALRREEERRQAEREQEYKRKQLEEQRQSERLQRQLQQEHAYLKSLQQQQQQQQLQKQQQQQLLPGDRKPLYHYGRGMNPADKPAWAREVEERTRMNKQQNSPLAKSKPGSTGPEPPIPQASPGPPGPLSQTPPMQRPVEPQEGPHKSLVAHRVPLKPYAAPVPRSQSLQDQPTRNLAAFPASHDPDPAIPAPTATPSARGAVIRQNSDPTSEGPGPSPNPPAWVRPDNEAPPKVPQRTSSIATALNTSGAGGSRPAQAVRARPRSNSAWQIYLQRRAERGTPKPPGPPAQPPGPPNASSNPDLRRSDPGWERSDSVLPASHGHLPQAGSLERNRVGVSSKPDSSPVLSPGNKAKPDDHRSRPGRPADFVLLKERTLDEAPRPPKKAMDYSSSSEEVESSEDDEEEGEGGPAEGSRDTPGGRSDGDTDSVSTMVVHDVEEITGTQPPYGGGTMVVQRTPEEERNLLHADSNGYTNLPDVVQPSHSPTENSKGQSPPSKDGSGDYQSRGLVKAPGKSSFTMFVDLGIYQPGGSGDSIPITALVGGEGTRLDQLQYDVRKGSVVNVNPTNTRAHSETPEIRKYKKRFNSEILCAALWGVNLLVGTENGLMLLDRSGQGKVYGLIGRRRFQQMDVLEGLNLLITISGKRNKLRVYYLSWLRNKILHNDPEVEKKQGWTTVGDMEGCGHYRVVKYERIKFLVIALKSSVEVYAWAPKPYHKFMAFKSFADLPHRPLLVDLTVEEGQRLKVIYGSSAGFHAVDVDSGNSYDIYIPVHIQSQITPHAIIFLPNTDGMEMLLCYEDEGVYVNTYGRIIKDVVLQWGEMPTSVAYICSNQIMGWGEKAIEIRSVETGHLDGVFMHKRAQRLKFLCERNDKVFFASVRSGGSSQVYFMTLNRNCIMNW
# Chain of Tyrosine-protein kinase Lyn (Homo sapiens) (P07948 2-512 limits assumed): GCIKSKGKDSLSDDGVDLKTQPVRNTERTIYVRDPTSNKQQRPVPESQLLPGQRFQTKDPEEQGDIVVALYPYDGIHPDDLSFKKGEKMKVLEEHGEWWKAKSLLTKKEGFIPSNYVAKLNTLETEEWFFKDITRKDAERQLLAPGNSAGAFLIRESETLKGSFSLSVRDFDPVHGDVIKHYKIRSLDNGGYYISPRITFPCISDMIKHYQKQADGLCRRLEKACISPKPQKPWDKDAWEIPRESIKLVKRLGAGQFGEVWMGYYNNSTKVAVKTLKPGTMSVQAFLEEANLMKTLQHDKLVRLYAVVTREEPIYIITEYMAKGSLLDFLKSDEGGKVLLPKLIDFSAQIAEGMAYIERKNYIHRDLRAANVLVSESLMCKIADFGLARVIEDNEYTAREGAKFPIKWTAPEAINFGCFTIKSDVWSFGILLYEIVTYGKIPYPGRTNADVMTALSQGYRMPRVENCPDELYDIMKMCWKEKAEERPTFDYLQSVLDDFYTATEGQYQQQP
Compound,residual activity [1] [%],residual activity [2] [%],residual activity [3] [%],residual activity [4] [%],residual activity [5] [%],residual activity [6] [%],residual activity [7] [%],residual activity [8] [%],residual activity [9] [%]
COc1cc2c(Oc3ccc(-c4nc5ccccc5s4)cc3)ncnc2cc1OCCCN1CCN(C)CC1,77,104,100,25,127,93,185,50,341
COc1cc2c(Oc3ccc(-c4nc5ccccc5s4)cc3F)ncnc2cc1OCCCN1CCN(C)CC1,77,93,97,29,55,115,164,38,230
COc1cc2c(Oc3ccc(-c4nc5ccccc5s4)cc3)ncnc2cc1OCCCN1CCCC1,101,119,88,29,131,97,148,57,166
